Values quoted from earlier work as cited in patent US9731015B2, “Water-soluble lipophilic natural compound formulations” (priority 2012, dated 2017).

What was measured:
[1] = humans, up to 4 g
[2] = background statement
[3] = animal pharmacokinetic studies

quercetin in plasma after oral administration [1] | solubility in water [2] | bioavailability of oral doses [3] | SMILES
No quercetin could be found in plasma | – | – | O=c1c(O)c(-c2ccc(O)c(O)c2)oc2cc(O)cc(O)c12 [quercetin]
– | virtually insoluble in water | very low bioavailability | Oc1ccc(C=Cc2cc(O)cc(O)c2)cc1 [resveratrol, 3,5,4′-trihydroxystilbene]
– | insoluble in water | – | COC1=C(OC)C(=O)C(C/C=C(\C)CC/C=C(\C)CC/C=C(\C)CC/C=C(\C)CC/C=C(\C)CC/C=C(\C)CC/C=C(\C)CC/C=C(\C)CC/C=C(\C)CCC=C(C)C)=C(C)C1=O [Co-enzyme Q-10, ubidecarenone]
